We go through six molecules from paper PMC12920294, “Optimizing uPAR-targeting radiopeptides for improved tissue distribution: progress towards radionuclide therapy” (European Journal of Nuclear Medicine and Molecular Imaging, 2025).

SMILES strings stand for the structures.

The nature of one series: physchem. It counts as physicochemical. The following applies: pH 7.4. The method, then: The ^177Lu-labeled peptides (50 MBq/nmol) were incubated in mouse or human blood plasma (10 MBq/200 µL) over an incubation period of 24 h at 37 °C. Aliquots and control samples of the radiopeptides diluted in saline were analyzed after 1 h, 4 h and 24 h using thin layer chromatography (TLC) as previously reported (Supplementary Material). The distribution coefficients (logD values) of the ^177Lu-labeled peptides (50 MBq/nmol) were determined using a shake-flask method according to a previously published procedure (Supplementary Material). Methods: The radiopeptides (50 MBq/nmol) were diluted in phosphate buffered saline (PBS) pH 7.4 to obtain an activity concentration of 10 MBq/500 µL. A sample of this radiopeptide solution (~0.5 MBq, 25 µL, 0.01 nmol) was added to a mixture of PBS pH 7.4 (1475 µL) and n-octanol (1500 µL). The vials were vortexed vigorously for 1 min followed by centrifugation (560 rcf, 25°C, 6 min) for phase separation. Aliquots were taken from each phase and measured in a γ-counter (Wallac Wizard 1480, PerkinElmer). The distribution coefficients were calculated as the logarithmic value of the ratio of counts per minute (cpm) measured in the n-octanol phase relative to the cpm measured in the PBS phase. The results were listed as average ± SD of the data obtained from 3 independent experiments, each performed with five replicates.

The target in the next series is T1, human uPAR (Homo sapiens, UniProt Q03405).
T1 construct: host or cells: HEK cells transfected with human uPAR (HEK-uPAR)
As to the kind of experiment: uPAR-binding affinity, saturation binding on HEK-uPAR cells. The following applies: 4 °C. The procedure:
To determine the uPAR-binding affinity of the radiopeptides, saturation binding experiments were performed according to a previously published procedure using HEK-uPAR cells in 48-well plates (Supplementary Material). The assay was performed on ice (at 4 °C) to prevent target internalization upon binding of the radiopeptides. The cells were incubated with the radiopeptides in the presence or absence of excess AE105 (40 µM) together with the respective radiopeptides at concentrations ranging between 1 nM and 1600 nM. After removal of the supernatant, the HEK-uPAR cells were rinsed and lysed to be measured using a γ-counter (Wallac Wizard 1480, PerkinElmer). The KD values were determined by plotting the specific binding (values of cell samples incubated without AE105 minus the respective values of samples incubated with AE105) against the molar concentration of the added peptide. A nonlinear regression analysis was performed using GraphPad Prism software (version 10.1.1). The results are reported as average of KD values ± SD of n = 3 independent experiments. Methods: HEK-uPAR cells were seeded in poly-D-lysine-coated 48-well plates (0.25 × 10^6 in 0.5 mL per well) using DMEM culture medium with supplements. The cells were incubated at 37 °C and 5% CO2 overnight to allow adhesion and growth. The well plates with HEK-uPAR cells were placed on ice for the entire experiment to prevent internalization of the radiopeptides. After removal of the medium, the HEK-uPAR cells were rinsed with cold PBS (0.5 mL, pH 7.4) followed by the addition of DMEM culture medium without supplements (450 µL/well) in the presence or absence of AE105 (final concentration 40 µM) as a receptor blocking agent. The cells were incubated for 30 min on ice. The respective radiopeptides (5 MBq/nmol) were diluted in PBS at peptide concentrations 10‒16000 nM. A volume of 50 µL from each dilution was added to each well to obtain peptide concentrations in the range of […]. The assay was performed at 4 °C on ice, to prevent internalization of the radiopeptides. The radiopeptides were incubated on cells for 1 h on a shaker before rinsing twice with PBS (0.5 mL, pH 7.4). Increasing ligand concentrations were used to approximate saturation of the binding sites (Bmax value) at equilibrium. Ligand depletion effects of the ligand concentration in the supernatant of the cell samples were not taken into account. The cells were lysed using an aqueous NaOH solution (1 M, 600 µL) and the lysates were transferred to radioimmunoassay tubes for counting the activity in a γ-counter (Wallac Wizard 1480, PerkinElmer). The KD values were determined by plotting the specific binding (total binding minus unspecific binding) against the molar concentration of the added radiopeptide using GraphPad Prism software (version 10.1.1). The results were then expressed as average ± SD of n = 3 independent experiments.

The test system of series [1] is HEK-uPAR xenograft-bearing mice. The following applies: mouse, in vivo. The method, then: Single-photon emission computed tomography/computed tomography (SPECT/CT) experiments were performed using a small-animal SPECT/CT camera (NanoSPECT/CTTM, Mediso Medical Imaging Systems, Budapest, Hungary) as described previously (Supplementary Material). HEK-uPAR xenografted nude mice were scanned at 1 h, 4 h, 24 h […] after injection of the respective radiopeptide (25 MBq, 0.5 nmol, in 100 μL 0.9% NaCl containing 0.05% bovine serum albumin (BSA)) The images were prepared using VivoQuant post-processing software (version 3.5, inviCRO Imaging Services and Software, Boston, USA). A Gauss post-reconstruction filter (full width at half maximum, 1.0 mm) was applied and the scale of activity was set as indicated on the images (minimum value = 0.2 Bq/voxel, maximum value = 20 Bq/voxel). Methods: SPECT/CT experiments were performed with CD1 nude mice (Crl:CD1-Foxn1^nu) approximately 3-9 weeks after HEK-uPAR cell inoculation. The mice were scanned 1 h, 4 h and 24 h post injection (p.i.) of the respective radiopeptide (25 MBq, 0.5 nmol, 100 μL, diluted in 0.9% NaCl containing 0.05% bovine serum albumin (BSA)). Imaging studies were performed using a four-head, multiplexing, multi-pinhole small-animal SPECT/CT camera (NanoSPECT/CT^TM, Mediso Medical Imaging Systems, Budapest, Hungary). Each head was outfitted with a tungsten-based aperture of nine 1.4 mm-diameter pinholes and a thickness of 10 mm. CT scans of 7-9 min duration were followed by SPECT scans of 45-50 min. The images were acquired using Nucline Software (version 10.2, Mediso Ltd., Budapest, Hungary). The real-time CT reconstruction used a cone-beam filtered backprojection. The reconstruction of SPECT data was performed with HiSPECT software (version 1.4.3049, […] GmbH, Göttingen, Germany) using γ-energies of 56.1 keV (± 10%), 112.9 keV (± 10%) and 208.4 keV (± 10%) for lutetium-177. The images were prepared using VivoQuant post-processing software (version 3.5, inviCRO Imaging Services and Software, Boston, USA). A Gauss post-reconstruction filter (full width at half maximum, 1.0 mm) was applied and the scale of activity was set as indicated on the images (minimum value = 0.2 Bq/voxel, maximum value = 20 Bq/voxel).

T1 sequence (Q03405 23-335): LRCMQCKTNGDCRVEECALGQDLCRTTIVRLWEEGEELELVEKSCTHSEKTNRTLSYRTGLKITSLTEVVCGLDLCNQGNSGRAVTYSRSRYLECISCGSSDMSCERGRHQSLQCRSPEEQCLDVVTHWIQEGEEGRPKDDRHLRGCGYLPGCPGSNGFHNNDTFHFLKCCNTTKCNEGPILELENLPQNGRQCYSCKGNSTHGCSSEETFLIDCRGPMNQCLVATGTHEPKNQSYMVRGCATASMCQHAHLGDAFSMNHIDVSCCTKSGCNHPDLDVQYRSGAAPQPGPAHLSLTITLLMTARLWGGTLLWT

The molecule `Cc1ccc(CCCC(=O)NCCOCCOCCOCCOCCOCCC(=O)NCCCC[C@H](NC(=O)CN2CCN(CC(=O)O)CCN(CC(=O)O)CCN(CC(=O)O)CC2)C(=O)N[C@@H](CC(=O)O)C(=O)N[C@@H](CC2CCCCC2)C(=O)N[C@@H](Cc2ccccc2)C(=O)N[C@H](CO)C(=O)N[C@H](CCCNC(=N)N)C(=O)N[C@@H](Cc2ccc(O)cc2)C(=O)N[C@@H](CC(C)C)C(=O)N[C@@H](Cc2c[nH]c3ccccc23)C(=O)N[C@@H](CO)C(N)=O)cc1` [[^177Lu]Lu-uPAR-18, metal not drawn] returned a logD in the series “physchem” of -0.5 ± 0.07. The molecule also returned a Kd on human uPAR of 33 ± 4 nM. The “SPECT/CT: accumulation in HEK-uPAR xenograft” value (shortened to “SPECT/CT: accumulation”) in series [1] is “highest at 1 h p.i. and relatively well retained over the following hours”.

Molecule `Cc1ccc(CCCC(=O)NCCCCCCCC(=O)NCCCC[C@H](NC(=O)CN2CCN(CC(=O)O)CCN(CC(=O)O)CCN(CC(=O)O)CC2)C(=O)N[C@@H](CC(=O)O)C(=O)N[C@@H](CC2CCCCC2)C(=O)N[C@@H](Cc2ccccc2)C(=O)N[C@H](CO)C(=O)N[C@H](CCCNC(=N)N)C(=O)N[C@@H](Cc2ccc(O)cc2)C(=O)N[C@@H](CC(C)C)C(=O)N[C@@H](Cc2c[nH]c3ccccc23)C(=O)N[C@@H](CO)C(N)=O)cc1` [[^177Lu]Lu-uPAR-12, metal not drawn] displayed a logD in “physchem” of 0.96 ± 0.15. The affinity at human uPAR, expressed as Kd, was 38 ± 9 nM. Further, the “SPECT/CT: blood retention” value in series [1] is reported as “substantial blood retention was observed over the entire time of investigation”.

On to `Cc1ccc(CCCC(=O)NCCOCCOCCOCCC(=O)NCCCC[C@H](NC(=O)CN2CCN(CC(=O)O)CCN(CC(=O)O)CCN(CC(=O)O)CC2)C(=O)N[C@@H](CC(=O)O)C(=O)N[C@@H](CC2CCCCC2)C(=O)N[C@@H](Cc2ccccc2)C(=O)N[C@H](CO)C(=O)N[C@H](CCCNC(=N)N)C(=O)N[C@@H](Cc2ccc(O)cc2)C(=O)N[C@@H](CC(C)C)C(=O)N[C@@H](Cc2c[nH]c3ccccc23)C(=O)N[C@@H](CO)C(N)=O)cc1` [[^177Lu]Lu-uPAR-15, metal not drawn], for which the logD in “physchem” is -0.03 ± 0.01. Besides, on human uPAR, the equilibrium dissociation constant (Kd) is 42 ± 3 nM. Further, the “SPECT/CT: accumulation” value in series [1] is “highest at 1 h p.i. and relatively well retained over the following hours”.

In the case of `Cc1ccc(CCCC(=O)NCCOCCOCCOCCOCCC(=O)NC[C@H](NC(=O)CN2CCN(CC(=O)O)CCN(CC(=O)O)CCN(CC(=O)O)CC2)C(=O)N[C@@H](CC(=O)O)C(=O)N[C@@H](CC2CCCCC2)C(=O)N[C@@H](Cc2ccccc2)C(=O)N[C@H](CO)C(=O)N[C@H](CCCNC(=N)N)C(=O)N[C@@H](Cc2ccc(O)cc2)C(=O)N[C@@H](CC(C)C)C(=O)N[C@@H](Cc2c[nH]c3ccccc23)C(=O)N[C@@H](CO)C(N)=O)cc1` [[^177Lu]Lu-uPAR-14, metal not drawn], in the series “physchem”, the logD was -0.13 ± 0.08. The same molecule showed a Kd at human uPAR of 37 ± 7 nM. Further, the “SPECT/CT: accumulation” value in series [1] is “almost entirely cleared at 24 h p.i”.

Turning to `Cc1ccc(CCCC(=O)NCCOCCOCCOCCOCCC(=O)NCCCC[C@H](NC(=O)CN2CCN(CC(=O)O)CCN(CC(=O)O)CCN(CC(=O)O)CC2)C(=O)N[C@@H](CC(=O)O)C(=O)N[C@@H](CC2CCCCC2)C(=O)N[C@@H](Cc2ccccc2)C(=O)N[C@H](CO)C(=O)N[C@H](CCCNC(=N)N)C(=O)N[C@@H](Cc2ccc(O)cc2)C(=O)N[C@@H](CC(C)C)C(=O)N[C@@H](Cc2c[nH]c3ccccc23)C(=O)N[C@@H](CO)C(N)=O)cc1` [[^177Lu]Lu-uPAR-11, metal not drawn], in the series “physchem”, the logD is -0.26 ± 0.09. Besides, at human uPAR, the affinity, expressed as Kd, was 37 ± 11 nM. In addition, in series [1], the “SPECT/CT: accumulation” value was “highest at 1 h p.i. and relatively well retained over the following hours”.

In “physchem”, `Cc1ccc(CCCC(=O)NCCOCCOCCOCCOCCC(=O)NCCCC[C@H](NC(=O)CC[C@H](C(=O)O)N2CCN(CC(=O)O)CCN(CC(=O)O)CCN(CC(=O)O)CC2)C(=O)N[C@@H](CC(=O)O)C(=O)N[C@@H](CC2CCCCC2)C(=O)N[C@@H](Cc2ccccc2)C(=O)N[C@H](CO)C(=O)N[C@H](CCCNC(=N)N)C(=O)N[C@@H](Cc2ccc(O)cc2)C(=O)N[C@@H](CC(C)C)C(=O)N[C@@H](Cc2c[nH]c3ccccc23)C(=O)N[C@@H](CO)C(N)=O)cc1` [[^177Lu]Lu-uPAR-17, metal not drawn] showed a logD of -1.56 ± 0.03. This molecule gave a Kd on human uPAR of 31 ± 6 nM. Moreover, the “SPECT/CT: accumulation” value in series [1] is recorded as “almost entirely cleared at 24 h p.i”.
